Entries after “also recorded” stand apart in the source; their conditions may differ.
Columns and labels:
[1] = system: basal forebrain neurotransmission / cortical cerebral blood flow; experiment: Cerebral blood flow (laser-doppler flowmetry) and mean arterial pressure with basal forebrain stimulation; format: in vivo, male Sprague-Dawley rats
Protocol: Methods for surgical preparation of rats for electrical stimulation of brain and measurement of CBF have been previously described (Nakai et al., Am. J. Physiol., 1982, 243: 226) and are summarized below.
Studies are conducted on male Sprague-Dawley rats that are maintained in a thermally-controlled (26°-27° C.), light-cycled (7.00 hour on-19.00 hour off) environment, fed standard rat chow and given water ad libitum. Anesthesia is induced with halothane (3.5%; balance O2) delivered through a nose mask and maintained at 2% during the initial surgery. Thin-wall vinyl catheters (o.d.=0.03 inch) are placed in each femoral artery and vein, and the trachea is cannulated.
Animals are subsequently co-anesthetized with urethane (1.5 g/kg, s.c.) and placed in a stereotaxic frame with the head positioned so that the floor of the IVth ventricle was horizontal (incisor bar position: -11 mm. ). After connecting the tracheal cannula to a small-animal respirator, the animals are temporarily paralyzed with d-tubocurarine (0.6 mg/kg/h, i.m.), and ventilated (80 cpm) with 100% O2. Arterial pressure (AP) and heart rate (HR) are continuously monitored through one of the arterial catheters connected to a Statham P23Db transducer that is coupled to a chart recorder. The level of anesthesia during surgery or subsequent experimental testing is assessed by the AP response to tail pinch, with increasing levels of arousal giving rise to irregular AP readings. Booster doses of urethane (250 mg/kg, s.c.) are given as needed.
Bilateral craniotomies (approximately 4 mm×11 mm) are performed overlying the frontoparietal cortices taking care to leave the dura intact. Halothane is delivered at a reduced rate of 1% during cranial surgery and discontinued afterward. A small volume (about 0.2 ml) of arterial blood is sampled after completion of all surgery for measurement of PO2, PCO2 and pH by a blood gas analyzer. Arterial blood gases are maintained so that PO2 was greater than 100 mm Hg, PCO2 =33-38 mmHg, and pH=7.35-7.45. Maintaining these values is accomplished by adjusting the stroke volume of the ventilator. Once appropriate physiological parameters are obtained (approximately 30 min), the experimental protocol is initiated.
The basal forebrain (BF) is stimulated with cathodal current delivered through a stainless steel concentric bipolar electrode ([…]) made by Rhodes Medical Instruments (Model SNEX-100). Electrical pulses are generated by a square wave stimulator (Grass, Model S-88) and constant current is passed through a photoelectric stimulus-isolation unit (Grass, Model PSIU6). The stimulus current is measured on an oscilloscope by continuously displaying the voltage drop across a 10-ohm resistor.
The procedure for eliciting an increased cortical CBF response requires the stereotaxic placement of the stimulating electrode into the BF. For positioning, the electrode is inclined posteriorly to 18 degrees, and the stereotaxic coordinates used were 5.0 mm posterior to, and 2.6 mm lateral to bregma (stereotaxic zero reference point). […] These parameters have been shown previously to elicit maximal increases in cortical CBF (Arneric, Excerpta Medica International Congress Series, 869:381, 1989). The region of the BF that selectively affects cortical CBF is restricted, with electrode movements of 0.5 mm dorsal or ventral to this site eliciting potent vasodepressor responses in addition to the increases in CBF. […] When CBF increases of approximately 100% or greater are repeatedly obtained in the absence of significant changes in AP (<10 mm Hg) or HR (<10 beats/min.), and when the perfusion rate is stable in the absence of BF stimulation, the experimental testing is started.
The principles and technical aspects of laser-doppler flowmetry (LDF) are presented in detail in Bonner et al., Appl. Opt., 1981, 20:2097 and Stern et al., Am. J. Physiol., 1977, 232:H441. […]

[2] = system: retention of the avoidance response; experiment: Inhibitory avoidance test; format: in vivo
Description: The inhibitory (or sometimes called passive) avoidance (IA) test is a well-accepted animal model for learning/memory and is widely used to assess the activity of novel cognition enhancers in enhancing cognitive function (Wanibuchi et al., Eur. J. Pharmacol., 1990, 187:479). According to this test, animals are placed in the illuminated (12×14×11 cm) portion of a two-chambered box, from which they enter through a guillotine door to the larger (24×13.5×12 cm) dark compartment of the box. Entry to the dark compartment is accompanied by a mild (0.35 mA), brief (2 seconds) footshock. Initial latencies to cross are recorded, with an imposed 60 second ceiling. Following a 24 hour retention interval, animals are returned to the illuminated chamber, and latency to return to the dark compartment is again recorded, with a ceiling of 180 seconds. No footshock is administered on the test day.
Twelve animals were used in each group.

[3] = system: time spent in the open arms (anxiolytic activity); experiment: Mouse elevated plus-maze; format: in vivo, CD1 mice
Description: The mouse elevated plus-maze is a commonly-used conflict test that probes anxiolytic activity of test compounds (Lister, Psychopharmacology, 1987, 92 180). It is based on the fact that exposure of mice to an elevated open arm leads to an avoidance response considerably stronger than that evoked by exposure to an enclosed arm.
The apparatus required to perform this test is made of plywood and consists of two open arms (17×8 cm) and two enclosed arms (17×8×15 cm) extending from a central platform (8×8 cm). It is mounted on a plywood base rising 39 cm above the floor. Mice are released on the central platform and the time spent in the open and enclosed arms is recorded during a 5 minute test period.
The compound of Example 2 (0.0108-1.08 μmol/kg, i.p.) was administered to CD1 mice (n=12 per group) 15 minutes before the test.

Cc1cc([C@@H]2CCCN2C)on1.O=C(O)C(=O)O [Example 2, 3-Methyl-5-(1-methyl-2(S)-pyrrolidinyl)-isoxazole oxalate salt]
BF-elicited CBF % change from pre-drug control ([1]; 0.004 μmol/kg i.v.): +68%
MAP % change from pre-drug control ([1]; 0.004 μmol/kg i.v.): +5%
resting CBF % change from pre-drug control ([1]; 0.004 μmol/kg i.v.): +5%
MAP % change from pre-drug control ([1]; 0.040 μmol/kg i.v.): -5%
resting CBF % change from pre-drug control ([1]; 0.040 μmol/kg i.v.): -2%
BF-elicited CBF % change from pre-drug control ([1]; 0.040 μmol/kg i.v., *p < 0.05): +60%
MAP % change from pre-drug control ([1]; 0.400 μmol/kg i.v.): -13%
resting CBF % change from pre-drug control ([1]; 0.400 μmol/kg i.v.): -6%
BF-elicited CBF % change from pre-drug control ([1]; 0.400 μmol/kg i.v., *p < 0.05): +68%
effect on resting CBF and the BF-elicited CBF response ([1]; i.v., low concentrations, n=3): effective in enhancing resting CBF and the BF-elicited CBF response
effects on MAP / blood pressure ([1]; i.v., oxalate salt): No remarkable effects on MAP; also recorded: no overt effects on blood pressure
equally efficacious at fraction of the dose of (-)-nicotine in IA ([2]; dose relative to (-)-nicotine): 1/17
Inhibitory Avoidance (IA) result ([2]; i.p. 15 min before training, retention at 24 h, p<0.05, oxalate salt): significantly facilitated the retention of the avoidance response; also recorded: significant
Elevated Plus-Maze (EPM) doses with significant effect ([3]; i.p., p<0.05): 0.036 to 1.08 µmol/kg
Elevated Plus-Maze (EPM) result ([3]; i.p., time in open arms, p<0.05, oxalate salt): clear anxiolytic response; also recorded: significant
anxiolytic potency relative to (-)-nicotine ([3]; more potent than (-)-nicotine): at least 10 fold
